What all share (assay type): functional
In assay [1] the test system is Mus musculus. Description: Analgesic activity in ICR mouse assessed as pain threshold variation at 25 umol/kg, po administered as single dose measured after 60 mins by tail flick test relative to control.
Assay [2] has as its system Mus musculus. Description: Analgesic activity in ICR mouse assessed as pain threshold variation at 25 umol/kg, po administered as single dose measured after 90 mins by tail flick test relative to control.
Assay [3] deals with Mus musculus. Description: Analgesic activity in ICR mouse assessed as pain threshold variation at 25 umol/kg, po administered as single dose measured after 150 mins by tail flick test relative to control. In general terms: Thermal pain tests record how soon the animal reacts.
Assay [4] deals with Mus musculus. Description: Analgesic activity in ICR mouse assessed as pain threshold variation at 25 umol/kg, po administered as single dose measured after 120 mins by tail flick test relative to control.
Assay [5] concerns Mus musculus. Description: Analgesic activity in ICR mouse assessed as pain threshold variation at 25 umol/kg, po administered as single dose measured after 180 mins by tail flick test relative to control.
In assay [6] the test system is Mus musculus. Description: Analgesic activity in ICR mouse assessed as pain threshold variation at 25 umol/kg, po administered as single dose measured after 30 mins by tail flick test relative to control.

With `O=C(CN(c1nc(Cl)nc2[nH]cnc12)C1CC1)N[C@@H](CC(=O)OCc1ccccc1)C(=O)OCc1ccccc1`, the Activity in the assay with Mus musculus [1] was 22.4%; in the assay with Mus musculus [2] it was 15.58%; in the assay with Mus musculus [3], 6.68%; in the assay with Mus musculus [4] it was 12.14%; in the assay with Mus musculus [5], 2.87%; with Mus musculus [6] it was 34.7%.

Take `CC(C)[C@H](NC(=O)CN(c1nc(Cl)nc2[nH]cnc12)C1CC1)C(=O)O`: the Activity in the assay with Mus musculus [1] is reported as 38.79%; in the assay on Mus musculus [2], 30.28%; with Mus musculus [3], 7.86%; in the assay on Mus musculus [4], 17.06%; in the assay on Mus musculus [5], 3.04%; in the assay with Mus musculus [6], 31.15%.

Turning to `CSCC[C@H](NC(=O)CN(c1ncnc2c1ncn2C1CCCCO1)C1CC1)C(=O)OCc1ccccc1` (some centres not stated), the Activity in the assay with Mus musculus [1] came out at 40.97%; with Mus musculus [2], 42.7%; in the assay on Mus musculus [3], 17.47%; with Mus musculus [4], 28.66%; in the assay with Mus musculus [5], 12.89%; with Mus musculus [6] it was 30.04%.

Turning to `O=C(CN(c1ncnc2c1ncn2C1CCCCO1)C1CC1)NCC(=O)OCc1ccccc1` (configuration not stated), the Activity in the assay with Mus musculus [1] turned out to be 40.44%; in the assay on Mus musculus [2], 25.94%; in the assay with Mus musculus [3] it was 7.26%; in the assay with Mus musculus [4] it was 17.23%; in the assay on Mus musculus [5] it was 0.06%; in the assay on Mus musculus [6] it was 55.72%.

Turning to `C[C@@H](O)[C@H](NC(=O)CN(c1nc(Cl)nc2[nH]cnc12)C1CC1)C(=O)O`, the Activity in the assay with Mus musculus [1] is 30.07%; in the assay on Mus musculus [2], 35.87%; in the assay on Mus musculus [3] it was 24.02%; in the assay on Mus musculus [4] it was 37.59%; in the assay with Mus musculus [5], 4.69%; with Mus musculus [6] it was 18.59%.

Turning to `O=C(CN(c1ncnc2c1ncn2C1CCCCO1)C1CC1)N[C@@H](CC(=O)OCc1ccccc1)C(=O)OCc1ccccc1` (some centres not stated), the Activity in the assay on Mus musculus [1] is recorded as 38.15%; in the assay with Mus musculus [2], 25.07%; in the assay on Mus musculus [3] it was 0.06%; in the assay on Mus musculus [4], 7.82%; in the assay on Mus musculus [5], 0.03%; in the assay with Mus musculus [6], 31.81%.

`O=C(CN(c1nc(Cl)nc2[nH]cnc12)C1CC1)N[C@@H](Cc1c[nH]c2ccccc12)C(=O)OCc1ccccc1`: the Activity in the assay on Mus musculus [1] is given as 42.24%; in the assay on Mus musculus [2], 40.71%; in the assay with Mus musculus [3], 10.71%; with Mus musculus [4], 21.51%; in the assay with Mus musculus [5] it was 7.78%; in the assay with Mus musculus [6], 30.67%.

For `O=C(O)[C@@H]1CCCN1C(=O)CN(c1nc(Cl)nc2[nH]cnc12)C1CC1`, the Activity in the assay with Mus musculus [1] amounted to 34.94%; with Mus musculus [2] it was 25.99%; in the assay on Mus musculus [3], 7.29%; in the assay with Mus musculus [4] it was 23.61%; in the assay on Mus musculus [5], 6.67%; with Mus musculus [6], 31.47%.

For the compound `NC(=O)CC[C@H](NC(=O)CN(c1nc(Cl)nc2[nH]cnc12)C1CC1)C(=O)OCc1ccccc1`, the Activity is 33.07% in the assay on Mus musculus [1]; 42.83% with Mus musculus [2]; 31.07% in the assay with Mus musculus [3]; 36.04% in the assay with Mus musculus [4]; 19.17% in the assay on Mus musculus [5]; 30.76% in the assay on Mus musculus [6].

Regarding `CC(C)C[C@H](NC(=O)CN(c1nc(Cl)nc2[nH]cnc12)C1CC1)C(=O)OCc1ccccc1`, the Activity in the assay with Mus musculus [1] turned out to be 27.26%; with Mus musculus [2] it was 15.21%; in the assay with Mus musculus [3], 5.26%; with Mus musculus [4] it was 8.58%; in the assay on Mus musculus [5], 4.29%; with Mus musculus [6], 33.91%.

With `O=C(CN(c1ncnc2c1ncn2C1CCCCO1)C1CC1)N[C@@H](Cc1c[nH]c2ccccc12)C(=O)OCc1ccccc1` (some centres not stated), the Activity is listed as 51.9% in the assay on Mus musculus [1]; 38.93% with Mus musculus [2]; 11.45% in the assay on Mus musculus [3]; 22.58% with Mus musculus [4]; 5.15% in the assay on Mus musculus [5]; 43.53% in the assay with Mus musculus [6].

For `CSCC[C@H](NC(=O)CN(c1nc(Cl)nc2[nH]cnc12)C1CC1)C(=O)OCc1ccccc1`, the Activity turned out to be 30.76% with Mus musculus [1]; 44.55% in the assay on Mus musculus [2]; 17.64% in the assay with Mus musculus [3]; 31.55% in the assay with Mus musculus [4]; 10.66% in the assay with Mus musculus [5]; 22.22% in the assay on Mus musculus [6].

`NC(=O)CC[C@H](NC(=O)CN(c1nc(Cl)nc2[nH]cnc12)C1CC1)C(=O)O`: the Activity in the assay on Mus musculus [1] is recorded as 38.4%; in the assay with Mus musculus [2], 41.1%; in the assay with Mus musculus [3], 11.38%; in the assay with Mus musculus [4], 17.75%; in the assay on Mus musculus [5], 9.07%; in the assay on Mus musculus [6], 33.11%.

Consider `C[C@H](NC(=O)CN(c1nc(Cl)nc2[nH]cnc12)C1CC1)C(=O)O`, for which the Activity came to 44.64% in the assay on Mus musculus [1]; 43.53% in the assay on Mus musculus [2]; 14.68% in the assay with Mus musculus [3]; 28.41% in the assay with Mus musculus [4]; 6.68% in the assay with Mus musculus [5]; 48.1% with Mus musculus [6].

As to `NC(=O)C[C@H](NC(=O)CN(c1nc(Cl)nc2[nH]cnc12)C1CC1)C(=O)OCc1ccccc1`, the Activity in the assay with Mus musculus [1] stood at 36.36%; in the assay on Mus musculus [2] it was 32.27%; in the assay with Mus musculus [3], 13.49%; in the assay on Mus musculus [4], 15.13%; in the assay on Mus musculus [5], 5.3%; in the assay with Mus musculus [6], 24.41%.

Consider `O=C(CN(c1nc(Cl)nc2[nH]cnc12)C1CC1)N[C@@H](Cc1ccccc1)C(=O)OCc1ccccc1`, for which the Activity is listed as 38.92% in the assay on Mus musculus [1]; 27.14% in the assay on Mus musculus [2]; 10.73% in the assay with Mus musculus [3]; 20.4% in the assay on Mus musculus [4]; 5.15% in the assay with Mus musculus [5]; 39.38% in the assay on Mus musculus [6].

Consider `O=C(CN(c1ncnc2c1ncn2C1CCCCO1)C1CC1)N[C@@H](CCC(=O)OCc1ccccc1)C(=O)OCc1ccccc1` (some centres not stated), for which the Activity is on record as 34.74% with Mus musculus [1]; 25.2% with Mus musculus [2]; 14.14% in the assay with Mus musculus [3]; 20.71% in the assay with Mus musculus [4]; 10.93% in the assay on Mus musculus [5]; 32.61% in the assay with Mus musculus [6].

With `CSCC[C@H](NC(=O)CN(c1nc(Cl)nc2[nH]cnc12)C1CC1)C(=O)O`, the Activity with Mus musculus [1] turned out to be 22.75%; in the assay with Mus musculus [2], 13.99%; in the assay on Mus musculus [3], 4.14%; with Mus musculus [4], 5.67%; in the assay on Mus musculus [5] it was 3.4%; with Mus musculus [6], 20.37%.

Regarding `O=C(CN(c1ncnc2c1ncn2C1CCCCO1)C1CC1)N[C@@H](Cc1ccc(O)cc1)C(=O)OCc1ccccc1` (some centres not stated), the Activity with Mus musculus [1] is 35.82%; in the assay with Mus musculus [2], 36.45%; with Mus musculus [3], 8.71%; with Mus musculus [4] it was 17.44%; in the assay with Mus musculus [5], 5.02%; in the assay on Mus musculus [6], 20.53%.

As to `O=C(CN(c1nc(Cl)nc2[nH]cnc12)C1CC1)N[C@@H](CO)C(=O)O`, the Activity in the assay on Mus musculus [1] is 39.76%; with Mus musculus [2], 43.9%; in the assay with Mus musculus [3], 18.83%; with Mus musculus [4], 39%; in the assay with Mus musculus [5], 12.32%; in the assay with Mus musculus [6] it was 38.65%.

`CC[C@H](C)[C@H](NC(=O)CN(c1nc(Cl)nc2[nH]cnc12)C1CC1)C(=O)O`: the Activity in the assay on Mus musculus [1] came out at 35.97%; in the assay on Mus musculus [2] it was 27.39%; in the assay on Mus musculus [3], 6.71%; in the assay on Mus musculus [4], 21.42%; in the assay with Mus musculus [5], 3.9%; in the assay with Mus musculus [6], 30.34%.

For `O=C(OCc1ccccc1)[C@@H]1CCCN1C(=O)CN(c1nc(Cl)nc2[nH]cnc12)C1CC1`, the Activity in the assay on Mus musculus [1] was found to be 34.37%; in the assay on Mus musculus [2] it was 43.28%; in the assay on Mus musculus [3], 31.09%; in the assay on Mus musculus [4], 38.35%; in the assay with Mus musculus [5] it was 17.63%; in the assay with Mus musculus [6] it was 33.18%.

`NC(=O)CC[C@H](NC(=O)CN(c1ncnc2c1ncn2C1CCCCO1)C1CC1)C(=O)OCc1ccccc1` (some centres not stated): the Activity came out at 39.4% with Mus musculus [1]; 37.82% in the assay on Mus musculus [2]; 10.72% in the assay on Mus musculus [3]; 22.34% in the assay on Mus musculus [4]; 7.71% in the assay on Mus musculus [5]; 46.96% with Mus musculus [6].

With `O=C(CN(c1ncnc2c1ncn2C1CCCCO1)C1CC1)N[C@@H](Cc1cnc[nH]1)C(=O)OCc1ccccc1` (some centres not stated), the Activity is recorded as 36.43% in the assay with Mus musculus [1]; 14.45% in the assay with Mus musculus [2]; 5.31% in the assay with Mus musculus [3]; 10.16% in the assay on Mus musculus [4]; 4.38% in the assay with Mus musculus [5]; 24.98% in the assay with Mus musculus [6].

As for `C[C@H](NC(=O)CN(c1nc(Cl)nc2[nH]cnc12)C1CC1)C(=O)OCc1ccccc1`, the Activity with Mus musculus [1] is on record as 64.29%; in the assay on Mus musculus [2], 44.16%; in the assay on Mus musculus [3] it was 23%; in the assay on Mus musculus [4] it was 36.13%; with Mus musculus [5] it was 15.09%; in the assay with Mus musculus [6], 41.23%.

Turning to `N=C(N)NCCC[C@H](NC(=O)CN(c1nc(Cl)nc2[nH]cnc12)C1CC1)C(=O)OCc1ccccc1`, the Activity amounted to 30.57% with Mus musculus [1]; 30.44% with Mus musculus [2]; 6.12% in the assay on Mus musculus [3]; 10.24% in the assay on Mus musculus [4]; 1.78% in the assay on Mus musculus [5]; 23.19% with Mus musculus [6].

Consider `CC(C)[C@H](NC(=O)CN(c1ncnc2c1ncn2C1CCCCO1)C1CC1)C(=O)OCc1ccccc1` (some centres not stated), for which the Activity in the assay on Mus musculus [1] is 34.85%; with Mus musculus [2], 30.14%; in the assay on Mus musculus [3], 21.08%; in the assay on Mus musculus [4], 25.79%; in the assay with Mus musculus [5], 5.65%; in the assay with Mus musculus [6], 21.83%.

These data come from ChEMBL document CHEMBL1152546, “N-[2-chloro-9H-purin-6-yl]-N-cyclopropylglycylamino acids and derivatives: synthesis, evaluation as a class of novel analgesics, and 3D QSAR analysis” (2009).
